Assay [1] concerns Murine EL-4 lymphoma cell line overexpressing human RORγt. In words: IL-17 secretion from EL4 murine lymphoma. The format is cell-based. The conditions noted are these: Mus musculus; human RORγt-transfected EL4 cells, PMA (10 ng/mL) and ionomycin (1 μM), 24 h; read-out: IC50, IL-17 secretion inhibition. As to the method: Murine EL-4 lymphoma cell line overexpressing human RORγt was used in this functional assay to assess compound ability to inhibit IL-17 cytokine secretion.
EL-4 cells are maintained in a standard culture medium RPMI supplemented with 10% fetal calf serum, 1% sodium pyruvate, 1% essential amino acids and 1% antibiotics at 37° C. in a humidified atmosphere of 5% CO02 and 95% air. Culture medium was changed every 2 days. EL4 cells were transfected with a plasmid encoding hRORγt (sequence identical to published sequence NM 001001523). […] Briefly, 1 μg of DNA/1 million cells was served to transfect EL-4 cells. Cell/DNA suspension was transferred into certified cuvette and the electroporation of RORγt plasmid was carried out using appropriate Nucleofector® program.
Cells were seeded in 96 well plates at a density of 150000 cells/I well then treated with compounds of this invention at indicated concentrations and incubated for 24 hours at 37° C. in a humidified atmosphere of 5% C02 and 95% air. EL-4 cells were pretreated with test compounds (RORγ modulators) and stimulated with PMA (10 ng/mL) and ionomycin (1 μM final concentration) in the presence of test compound concentrations for additional 24 h at 37° C. in a humidified atmosphere of 5% C02 and 95% air. Subsequently, supernatants were collected (after centrifugation at 300 g for 10 minutes) to determine the concentrations of IL-17 by HTRF (CisBio, France) or ELISA (R&D Systems Europe) according to the manufacturer's protocols.

Another assay concerns the target T1, human RORγt (Homo sapiens, UniProt P51449).
T1 construct: the full-length cDNA of human RORγt; expressed in transfected cells; host or cells: COS-7 (monkey kidney)
T1 sequence (P51449 1-497 isoform P51449-2): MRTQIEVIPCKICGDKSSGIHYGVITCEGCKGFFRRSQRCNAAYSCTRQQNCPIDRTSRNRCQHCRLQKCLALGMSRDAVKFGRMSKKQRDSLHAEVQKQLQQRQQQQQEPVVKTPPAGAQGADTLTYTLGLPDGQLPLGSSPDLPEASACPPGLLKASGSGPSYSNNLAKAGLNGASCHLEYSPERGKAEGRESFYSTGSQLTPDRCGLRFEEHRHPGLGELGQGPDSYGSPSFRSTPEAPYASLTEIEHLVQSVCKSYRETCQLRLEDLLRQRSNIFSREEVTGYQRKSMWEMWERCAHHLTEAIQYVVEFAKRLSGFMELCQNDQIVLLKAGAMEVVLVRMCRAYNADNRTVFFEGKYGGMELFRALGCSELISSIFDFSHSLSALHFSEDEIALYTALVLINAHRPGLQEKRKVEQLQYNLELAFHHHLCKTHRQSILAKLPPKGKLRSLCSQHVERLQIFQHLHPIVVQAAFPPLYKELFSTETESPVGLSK
In words: RORE Luciferase/RORγt transactivation assay. Format: cell-based. The conditions noted are these: COS-7 cells transfected with human IL-17 promoter luciferase reporter and RORγt plasmid; 20 h with compound; read-out: IC50, RORγt activity inhibition. The method, boiled down:
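COS-7 cells were transiently co-transfected with a human IL-17 promoter (RORE/CNS)–luciferase reporter and a RORγt expression plasmid, then seeded at 10000 cells/well in serum-free, phenol red-free DMEM. Compounds were added at 0.3% DMSO final. Luciferase was read with Steady-Glo, and IC50 and Emax were derived.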
A general note: Reporter assays use an easily measured gene product as a stand-in for the process of interest.

Each structure is given as a SMILES string.

With `Cc1ccc(C(NC(=O)Cc2ccc3c(c2)C(C)(O)C(=O)N3C)c2ccc(C)o2)c(N2CCCCC2)c1` (stereo not drawn) [Cpd. 39, 2-(3-hydroxy-1,3-dimethyl-2-oxo-2,3-dihydro-1H-indol-5-yl)-N-{[4-methyl-2-(piperidin-1-yl)phenyl](5-methylfuran-2-yl)methyl}acetamide], the IC50 (in assay [1]; on human RORγt) was 100 to 1000 nM each time.
Consider `Cc1ccc(C(NC(=O)Cc2ccc3c(c2)CN(S(C)(=O)=O)C3)c2ccc(C)o2)c(N2CCCCC2)c1` (stereo not drawn) [Cpd. 41, 2-(2-methanesulfonyl-2,3-dihydro-1H-isoindol-5-yl)-N-{[4-methyl-2-(piperidin-1-yl)phenyl](5-methylfuran-2-yl)methyl}acetamide], for which the half-maximal inhibitory concentration (IC50) in assay [1] is below 100 nM; on human RORγt, 10 to 100 nM.
`Cc1ccc(C(NC(=O)Cc2ccc3c(c2)C(=NO)C(=O)N3)c2ccc(C)o2)c(N2CCCCC2)c1` (stereo not drawn) [Cpd. 42, 2-[3-(hydroxyimino)-2-oxo-2,3-dihydro-1H-indol-5-yl]-N-{[4-methyl-2-(piperidin-1-yl)phenyl](5-methylfuran-2-yl)methyl}acetamide]: the IC50 (in assay [1]; at human RORγt) was 100 to 1000 nM in each case.
Consider `Cc1ccc(C(NC(=O)Cc2cc(C)c3c(c2)CC(=O)N3)c2ccc(C)o2)c(N2CCCCC2)c1` (stereo not drawn) [Cpd. 54, N-{[4-methyl-2-(piperidin-1-yl)phenyl](5-methylfuran-2-yl)methyl}-2-(7-methyl-2-oxo-2,3-dihydro-1H-indol-5-yl)acetamide], for which the values for the IC50 (in assay [1]; at human RORγt) were below 100 nM and 10 to 100 nM, respectively.
The corresponding values for `Cc1ccc(C(NC(=O)Cc2ccc3[nH]cc(CCO)c3c2)c2ccc(C)o2)c(N2CCCCC2)c1` (stereo not drawn) [Cpd. 57, 2-[3-(2-hydroxyethyl)-1H-indol-5-yl]-N-{[4-methyl-2-(piperidin-1-yl)phenyl](5-methylfuran-2-yl)methyl}acetamide] are below 100 nM and 10 to 100 nM.
Regarding `Cc1ccc(C(NC(=O)Cc2ccc3[nH]cc(CO)c3c2)c2ccc(C)o2)c(N2CCCCC2)c1` (stereo not drawn) [Cpd. 58, 2-[3-(hydroxymethyl)-1H-indol-5-yl]-N-{[4-methyl-2-(piperidin-1-yl)phenyl](5-methylfuran-2-yl)methyl}acetamide], the figures for the IC50 (in assay [1]; at human RORγt) were below 100 nM and 10 to 100 nM, respectively.
With `Cc1ccc(C(NC(=O)C2(c3ccc4c(c3)CC(=O)N4)CC2)c2ccc(C)o2)c(C)c1` (stereo not drawn) [Cpd. 61, N-[(2,4-dimethylphenyl)(5-methylfuran-2-yl)methyl]-1-(2-oxo-2,3-dihydro-1H-indol-5-yl)cyclopropane-1-carboxamide], the figures for the IC50 (in assay [1]; on human RORγt) were below 100 nM and below 10 nM, respectively.
Consider `Cc1ccc(C(NC(=O)C2(c3ccc4[nH]cc(CCO)c4c3)CC2)c2ccc(Cl)o2)c(C)c1` (stereo not drawn) [Cpd. 62, N-[(5-chlorofuran-2-yl)(2,4-dimethylphenyl)methyl]-1-[3-(2-hydroxyethyl)-1H-indol-5-yl]cyclopropane-1-carboxamide], for which the IC50 in assay [1] is below 100 nM; on human RORγt, 10 to 100 nM.
Regarding `Cc1ccc(C(NC(=O)C2(c3ccc4c(c3)CS(=O)(=O)C4)CC2)c2ccc(Cl)o2)c(C)c1` (stereo not drawn) [Cpd. 72, N-[(5-chlorofuran-2-yl)(2,4-dimethylphenyl)methyl]-1-(2,2-dioxo-1,3-dihydro-2-benzothiophen-5-yl)cyclopropane-1-carboxamide], the IC50 in assay [1] lay in the range of 100 to 1000 nM; at human RORγt, 10 to 100 nM.
Taken in the same sequence, the figures for `Cc1ccc(C(NC(=O)C2(c3ccc4c(c3)CN(S(C)(=O)=O)C4)CC2)c2ccc(C)o2)c(N2CCCC2)c1` (stereo not drawn) [Cpd. 73, 1-(2-methanesulfonyl-2,3-dihydro-1H-isoindol-5-yl)-N-{[4-methyl-2-(pyrrolidin-1-yl)phenyl](5-methylfuran-2-yl)methyl}cyclopropane-1-carboxamide] were below 100 nM and 10 to 100 nM.
Taken in the same sequence, the figures for `Cc1ccc(C(NC(=O)C2(c3ccc4c(c3)CN(S(C)(=O)=O)C4)CC2)c2ccc(C)o2)c(N(C)C)c1` (stereo not drawn) [Cpd. 76, N-{[2-(dimethylamino)-4-methylphenyl](5-methylfuran-2-yl)methyl}-1-(2-methanesulfonyl-2,3-dihydro-1H-isoindol-5-yl)cyclopropane-1-carboxamide] were 100 to 1000 nM and 10 to 100 nM.
In the case of `Cc1ccc(C(NC(=O)Cc2ccc3c(c2)CS(=O)(=O)C3)c2ccc(C)o2)c(N2CCCCC2)c1` (stereo not drawn) [Cpd. 78, 2-(2,2-dioxo-1,3-dihydro-2-benzothiophen-5-yl)-N-{[4-methyl-2-(piperidin-1-yl)phenyl](5-methylfuran-2-yl)methyl}acetamide], the IC50 in assay [1] is 100 to 1000 nM; on human RORγt, 10 to 100 nM.
Taken in the same sequence, the figures for `Cc1ccc(C(NC(=O)Cc2ccc3c(c2)CN(S(C)(=O)=O)C3)c2ccc(Cl)o2)c(N2CCCCC2)c1` (stereo not drawn) [Cpd. 79, N-[(5-chlorofuran-2-yl)[4-methyl-2-(piperidin-1-yl)phenyl]methyl]-2-(2-methanesulfonyl-2,3-dihydro-1H-isoindol-5-yl)acetamide] were 100 to 1000 nM and 10 to 100 nM.
On to `Cc1ccc(C(NC(=O)C2(c3ccc4c(c3)CN(S(C)(=O)=O)C4)CC2)c2ccc(Cl)o2)c(N2CCCC2)c1` (stereo not drawn) [Cpd. 80, N-[(5-chlorofuran-2-yl)[4-methyl-2-(pyrrolidin-1-yl)phenyl]methyl]-1-(2-methanesulfonyl-2,3-dihydro-1H-isoindol-5-yl)cyclopropane-1-carboxamide], for which the IC50 in assay [1] is 100 to 1000 nM; on human RORγt, 10 to 100 nM.
Consider `Cc1ccc(C(NC(=O)Cc2ccc3c(c2)CC(=O)N3)c2ccc(Cl)o2)c(N2CCCCC2)c1` (stereo not drawn) [Cpd. 83, N-[(5-chlorofuran-2-yl)[4-methyl-2-(piperidin-1-yl)phenyl]methyl]-2-(2-oxo-2,3-dihydro-1H-indol-5-yl)acetamide], for which the values for the IC50 (in assay [1]; at human RORγt) were 100 to 1000 nM and 10 to 100 nM, respectively.
The corresponding values for `Cc1ccc(C(NC(=O)Cc2ccc3[nH]c(N4CCOCC4)nc3c2)c2ccc(C)o2)c(N2CCCCC2)c1` (stereo not drawn) [Cpd. 93, N-{[4-methyl-2-(piperidin-1-yl)phenyl](5-methylfuran-2-yl)methyl}-2-[2-(morpholin-4-yl)-1H-1,3-benzodiazol-5-yl]acetamide] are below 100 nM and 10 to 100 nM.
The corresponding values for `Cc1ccc(C(NC(=O)Cc2ccc3[nH]cc(C(=O)CS(C)(=O)=O)c3c2)c2ccc(C)o2)c(N2CCCCC2)c1` (stereo not drawn) [Cpd. 103, 2-[3-(2-methanesulfonylacetyl)-1H-indol-5-yl]-N-{[4-methyl-2-(piperidin-1-yl)phenyl](5-methylfuran-2-yl)methyl}acetamide] are below 100 nM and 10 to 100 nM.
The corresponding values for `Cc1ccc(C(NC(=O)Cc2ccc3[nH]cc(C(=O)CS(C)(=O)=O)c3c2)c2ccc(C)o2)c(Br)c1` (stereo not drawn) [Cpd. 104, N-[(2-bromo-4-methylphenyl)(5-methylfuran-2-yl)methyl]-2-[3-(2-methanesulfonylacetyl)-1H-indol-5-yl]acetamide] are 1000 to 10000 nM and 100 to 1000 nM.
With `Cc1ccc(C(NC(=O)Cc2ccc3c(ccn3S(C)(=O)=O)c2)c2ccc(C)o2)c(N2CCCCC2)c1` (stereo not drawn) [Cpd. 106, 2-(1-methanesulfonyl-1H-indol-5-yl)-N-{[4-methyl-2-(piperidin-1-yl)phenyl](5-methylfuran-2-yl)methyl}acetamide], the IC50 was in the range of 100 to 1000 nM in assay [1] and 10 to 100 nM at human RORγt.
The corresponding values for `Cc1ccc(C(NC(=O)Cc2ccc3[nH]cc(C(=O)CS(C)(=O)=O)c3c2)c2ccc(C)o2)c(C)c1` (stereo not drawn) [Cpd. 107, N-[(2,4-dimethylphenyl)(5-methylfuran-2-yl)methyl]-2-[3-(2-methanesulfonylacetyl)-1H-indol-5-yl]acetamide] are 1000 to 10000 nM and 100 to 1000 nM.
Consider `Cc1ccc(C(NC(=O)C2(c3ccc4[nH]ccc4c3)CC2)c2ccc(C)o2)c(C)c1` (stereo not drawn) [Cpd. 108, N-[(2,4-dimethylphenyl)(5-methylfuran-2-yl)methyl]-1-(1H-indol-5-yl)cyclopropane-1-carboxamide], for which the IC50 is below 100 nM in assay [1] and 10 to 100 nM on human RORγt.

One may read the IC50 as the point on the concentration scale where inhibition reaches its midpoint.
